From ChEMBL document CHEMBL5465560, “Selectivity Literature for EUbOPEN Chemogenomic Library” (2024)

How the values were obtained:
[1] = target: Serine/threonine-protein kinase 32B (Homo sapiens) (UniProt Q9NY57); assay: Selectivity interaction (KinomeScan (DiscoverX)) EUB0000595a STK32B; details: at 10 µM
[2] = target: T1, Serine/threonine-protein kinase LATS2 (Homo sapiens) (UniProt Q9NRM7); details: at 10 µM
T1 sequence (whole entry): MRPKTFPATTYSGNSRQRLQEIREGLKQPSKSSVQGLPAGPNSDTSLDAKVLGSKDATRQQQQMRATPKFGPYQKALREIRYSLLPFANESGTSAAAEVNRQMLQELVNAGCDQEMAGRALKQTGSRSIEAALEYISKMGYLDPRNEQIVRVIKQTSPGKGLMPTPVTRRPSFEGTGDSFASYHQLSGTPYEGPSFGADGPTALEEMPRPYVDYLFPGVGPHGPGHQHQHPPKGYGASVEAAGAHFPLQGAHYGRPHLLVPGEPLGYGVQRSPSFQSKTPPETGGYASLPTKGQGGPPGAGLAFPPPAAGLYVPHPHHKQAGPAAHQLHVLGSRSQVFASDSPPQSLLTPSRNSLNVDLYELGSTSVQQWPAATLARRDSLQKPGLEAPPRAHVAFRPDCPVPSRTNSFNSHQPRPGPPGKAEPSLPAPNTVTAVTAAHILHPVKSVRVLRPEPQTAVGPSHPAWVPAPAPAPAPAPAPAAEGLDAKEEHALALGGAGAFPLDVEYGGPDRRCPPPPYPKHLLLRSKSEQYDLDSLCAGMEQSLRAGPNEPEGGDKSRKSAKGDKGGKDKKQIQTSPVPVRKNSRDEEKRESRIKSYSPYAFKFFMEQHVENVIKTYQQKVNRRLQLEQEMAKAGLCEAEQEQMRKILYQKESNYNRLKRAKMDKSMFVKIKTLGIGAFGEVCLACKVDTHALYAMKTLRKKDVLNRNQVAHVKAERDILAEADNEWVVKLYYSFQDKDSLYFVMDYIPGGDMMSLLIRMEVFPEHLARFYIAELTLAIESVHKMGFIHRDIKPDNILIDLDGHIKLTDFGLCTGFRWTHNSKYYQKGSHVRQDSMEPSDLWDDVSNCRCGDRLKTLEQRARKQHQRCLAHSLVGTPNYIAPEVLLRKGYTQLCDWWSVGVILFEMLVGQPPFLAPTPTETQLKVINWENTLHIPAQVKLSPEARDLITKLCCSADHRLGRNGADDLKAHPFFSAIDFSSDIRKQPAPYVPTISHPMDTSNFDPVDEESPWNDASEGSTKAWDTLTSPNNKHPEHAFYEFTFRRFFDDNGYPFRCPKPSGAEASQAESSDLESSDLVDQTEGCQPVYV

[3] = target: Casein kinase I isoform gamma-2 (Homo sapiens) (UniProt P78368); assay: Selectivity interaction (KinomeScan (DiscoverX)) EUB0000045b CSNK1G2
[4] = target: T2, SNF-related serine/threonine-protein kinase (Homo sapiens) (UniProt Q9NRH2); assay: Selectivity interaction (ActivX KiNativ screen (kinase selectivity in THP-1 cell lysates)) EUB0000639a SNRK; format: subcellular; details: lysate, at 1 µM
T2 sequence (whole entry): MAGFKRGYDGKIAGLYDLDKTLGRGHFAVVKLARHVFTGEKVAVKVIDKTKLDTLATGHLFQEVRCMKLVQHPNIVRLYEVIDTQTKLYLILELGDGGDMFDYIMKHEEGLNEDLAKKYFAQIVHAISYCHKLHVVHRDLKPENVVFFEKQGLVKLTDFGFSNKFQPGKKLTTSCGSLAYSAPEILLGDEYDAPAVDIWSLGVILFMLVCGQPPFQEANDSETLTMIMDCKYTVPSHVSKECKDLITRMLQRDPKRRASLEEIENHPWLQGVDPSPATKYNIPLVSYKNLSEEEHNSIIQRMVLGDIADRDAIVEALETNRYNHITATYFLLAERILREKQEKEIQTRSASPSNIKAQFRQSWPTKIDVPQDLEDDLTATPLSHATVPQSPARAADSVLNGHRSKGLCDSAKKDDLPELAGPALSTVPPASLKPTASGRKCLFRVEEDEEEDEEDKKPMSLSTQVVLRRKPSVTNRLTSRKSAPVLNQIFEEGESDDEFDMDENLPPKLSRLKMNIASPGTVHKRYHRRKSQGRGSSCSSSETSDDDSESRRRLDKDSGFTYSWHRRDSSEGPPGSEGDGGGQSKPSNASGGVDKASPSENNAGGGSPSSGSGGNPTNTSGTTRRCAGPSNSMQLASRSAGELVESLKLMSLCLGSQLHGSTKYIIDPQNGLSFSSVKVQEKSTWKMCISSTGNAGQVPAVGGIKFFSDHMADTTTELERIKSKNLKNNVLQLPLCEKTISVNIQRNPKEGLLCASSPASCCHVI

[5] = target: T3, Serine/threonine-protein kinase TAO1 (Homo sapiens) (UniProt Q7L7X3); assay: Selectivity interaction (KinomeScan (DiscoverX)) EUB0000655a TAOK1; details: at 10 µM
T3 sequence (whole entry): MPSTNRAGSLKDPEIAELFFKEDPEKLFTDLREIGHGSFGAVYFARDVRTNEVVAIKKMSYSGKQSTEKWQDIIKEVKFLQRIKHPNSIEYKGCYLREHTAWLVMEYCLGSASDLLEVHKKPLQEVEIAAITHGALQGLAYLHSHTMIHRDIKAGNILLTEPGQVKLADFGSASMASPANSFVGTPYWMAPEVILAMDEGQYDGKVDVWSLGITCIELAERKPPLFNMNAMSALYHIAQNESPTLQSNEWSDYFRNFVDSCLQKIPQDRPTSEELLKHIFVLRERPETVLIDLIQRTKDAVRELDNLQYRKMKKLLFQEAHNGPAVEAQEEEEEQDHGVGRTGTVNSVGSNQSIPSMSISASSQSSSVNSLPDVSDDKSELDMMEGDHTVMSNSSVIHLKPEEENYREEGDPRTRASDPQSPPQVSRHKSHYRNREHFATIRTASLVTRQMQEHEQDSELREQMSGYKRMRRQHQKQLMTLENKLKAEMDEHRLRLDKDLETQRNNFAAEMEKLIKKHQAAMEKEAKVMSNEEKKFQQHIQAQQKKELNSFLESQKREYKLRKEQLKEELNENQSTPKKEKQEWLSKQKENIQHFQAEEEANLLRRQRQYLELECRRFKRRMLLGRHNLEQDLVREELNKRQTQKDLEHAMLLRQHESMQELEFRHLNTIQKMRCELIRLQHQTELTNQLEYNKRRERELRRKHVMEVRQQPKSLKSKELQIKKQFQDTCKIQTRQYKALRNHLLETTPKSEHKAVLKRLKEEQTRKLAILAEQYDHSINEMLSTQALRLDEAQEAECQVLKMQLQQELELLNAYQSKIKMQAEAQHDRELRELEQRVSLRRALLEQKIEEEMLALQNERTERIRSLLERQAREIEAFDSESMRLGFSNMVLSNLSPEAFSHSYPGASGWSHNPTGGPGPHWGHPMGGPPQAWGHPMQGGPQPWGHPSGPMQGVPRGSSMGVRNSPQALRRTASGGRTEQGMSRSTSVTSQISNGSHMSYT

Chain of Casein kinase I isoform gamma-2 (Homo sapiens) (P78368 whole entry, looked up, canonical isoform): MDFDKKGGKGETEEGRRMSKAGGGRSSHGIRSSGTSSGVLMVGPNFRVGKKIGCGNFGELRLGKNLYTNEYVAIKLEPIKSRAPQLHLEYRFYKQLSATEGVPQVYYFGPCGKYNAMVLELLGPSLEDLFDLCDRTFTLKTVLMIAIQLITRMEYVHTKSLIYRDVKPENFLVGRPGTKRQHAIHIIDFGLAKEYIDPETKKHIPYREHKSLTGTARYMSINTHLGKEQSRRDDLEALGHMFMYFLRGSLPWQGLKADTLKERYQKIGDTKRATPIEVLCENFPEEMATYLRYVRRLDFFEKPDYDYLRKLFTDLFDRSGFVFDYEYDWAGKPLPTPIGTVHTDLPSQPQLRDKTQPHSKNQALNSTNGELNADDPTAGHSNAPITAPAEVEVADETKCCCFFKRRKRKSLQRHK
Chain of Serine/threonine-protein kinase 32B (Homo sapiens) (Q9NY57 whole entry): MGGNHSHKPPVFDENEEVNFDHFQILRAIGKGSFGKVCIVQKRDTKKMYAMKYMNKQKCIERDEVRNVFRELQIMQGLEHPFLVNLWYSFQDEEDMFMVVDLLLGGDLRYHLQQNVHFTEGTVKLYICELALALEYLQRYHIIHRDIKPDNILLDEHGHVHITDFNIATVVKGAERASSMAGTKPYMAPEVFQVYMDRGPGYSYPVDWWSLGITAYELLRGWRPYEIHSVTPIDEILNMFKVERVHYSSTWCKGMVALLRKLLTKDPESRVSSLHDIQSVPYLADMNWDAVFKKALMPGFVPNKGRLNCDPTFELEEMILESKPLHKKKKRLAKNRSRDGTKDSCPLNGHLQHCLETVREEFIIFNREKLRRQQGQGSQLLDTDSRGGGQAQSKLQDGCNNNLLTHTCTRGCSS

COCC(=O)NC/C=C/c1ccc2ncnc(Nc3ccc(Oc4ccc(C)nc4)c(C)c3)c2c1 [CP-724714]
% of control [1]: 92%
% of control [2]: 100%

C=CC(=O)Nc1cc(-n2c(=O)ccc3cnc4ccc(-c5ccc(NS(C)(=O)=O)cc5)cc4c32)ccc1C
% of control ([3]; at 1 µM): 100%
% of control ([3]; at 10 µM): 62%

CC[C@@H]1[C@H](F)C(=O)N[C@@H]1COc1nccc2cc(C(N)=O)c(OC)cc12 [ZIMLOVISERTIB]
% of inhibition [4]: 2.6%

CN(C)CCOc1ccc(-c2nc(-c3ccncc3)c(-c3ccc4c(c3)CC/C4=N\O)[nH]2)cc1
% of control [5]: 81%
